The source of these data is ChEMBL document CHEMBL1201862, “PubChem BioAssay data set” (2004).

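Test compounds were applied to cells in 96-well plates for 48 hours at 5 doses. GI50 = concentration required for 50% inhibition of growth.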 The source made the active and inactive calls. No stated cut-off is given here; in the data, active = GI50 up to about 1.1 µM and inactive = higher.

Test systems include A549; BT-549; HCC 2998; HL-60; HOP-62; HOP-92; K562; KM12; M14; Malme-3M; NCI-H226; NCI-H522; OVCAR-3; PC-3; RPMI-8226; RXF 393; SF-295; SNB-75; UACC-257; UACC-62.
Test in all cases: NCI anticancer screen, dose series, 48 h

Take `CCOC(=O)/C(=C\c1ccccc1)C(=O)CCN1CCOCC1`: the GI50 with A549 is 22.4 µM (inactive); in the assay with BT-549, 16.7 µM (inactive); with HCC 2998 it was 17.8 µM (inactive); in the assay with HL-60, 1.4 µM (inactive); in the assay with HOP-62, 21 µM (inactive); in the assay on HOP-92 it was 5.86 µM (inactive). In addition, the GI50 in the assay with K562 was 1.57 µM (inactive); in the assay with KM12 it was 7.94 µM (inactive); in the assay with M14, 6.67 µM (inactive); in the assay on Malme-3M it was 2.7 µM (inactive); in the assay with NCI-H226, 20.7 µM (inactive); with NCI-H522, 1.67 µM (inactive). Also, the GI50 in the assay on OVCAR-3 is 7.41 µM (inactive); with PC-3, 12.2 µM (inactive); in the assay on RPMI-8226, 2.07 µM (inactive); in the assay on RXF 393, 2.86 µM (inactive); in the assay on SF-295, 19.2 µM (inactive); in the assay with SNB-75, 16.4 µM (inactive). In addition, the GI50 with UACC-257 was 4.58 µM (inactive); in the assay with UACC-62, 4.24 µM (inactive).
For the compound `CCOC(=O)CC/C(=N/Nc1ccc(Cl)cc1[N+](=O)[O-])C(=O)OCC`, the GI50 is > 100 µM (inactive) in the assay on A549; > 100 µM (inactive) in the assay on BT-549; 26.2 µM (inactive) with HCC 2998; > 100 µM (inactive) in the assay on HL-60; > 100 µM (inactive) in the assay on HOP-62; 11.4 µM (inactive) in the assay with HOP-92. The GI50 with K562, in the assay on KM12, in the assay on M14, in the assay with Malme-3M, in the assay with NCI-H226 and in the assay with NCI-H522 was > 100 µM (inactive) each time. Also, the GI50 with OVCAR-3 is > 100 µM (inactive); in the assay with PC-3, > 100 µM (inactive); in the assay with RPMI-8226, > 100 µM (inactive); in the assay with RXF 393, > 100 µM (inactive); in the assay on SF-295, > 100 µM (inactive); in the assay with SNB-75 it was 61.8 µM (inactive). The GI50 in the assay with UACC-257 and in the assay on UACC-62 was > 100 µM (inactive) throughout.
For the compound `CCOP(=O)(OCC)c1c(C(=O)OC)cc(=O)[nH]c1-c1ccc(C)cc1`, the GI50 is 15.2 µM (inactive) in the assay on A549; 7.71 µM (inactive) in the assay on BT-549; 18.1 µM (inactive) in the assay on HCC 2998; 1.23 µM (inactive) with HL-60; 18.5 µM (inactive) with HOP-62; 2.75 µM (inactive) in the assay with HOP-92. Besides, the GI50 is 10.4 µM (inactive) in the assay with K562; 16 µM (inactive) in the assay on KM12; 11.6 µM (inactive) in the assay on M14; 6.1 µM (inactive) with Malme-3M; 9.31 µM (inactive) in the assay with NCI-H226; 0.968 µM (active) with NCI-H522. Further, the GI50 was 11.1 µM (inactive) in the assay on OVCAR-3; 16.7 µM (inactive) with PC-3; 5.27 µM (inactive) in the assay with RPMI-8226; 12.5 µM (inactive) in the assay on RXF 393; 19.8 µM (inactive) in the assay on SF-295; 12.8 µM (inactive) with SNB-75. The GI50 is 15.6 µM (inactive) in the assay on UACC-257 and 7.01 µM (inactive) in the assay on UACC-62.
For `CCCC(=O)NC(Nc1ccc(S(=O)(=O)Nc2ccc(OC)nn2)cc1)(C(F)(F)F)C(F)(F)F`, the GI50 in the assay on A549, with BT-549, with HCC 2998, in the assay on HL-60, in the assay with HOP-62 and in the assay on HOP-92 was > 100 µM (inactive) in each case. For the same compound, the GI50 in the assay with K562, in the assay on KM12, with M14, with Malme-3M, in the assay with NCI-H226 and in the assay on NCI-H522 was > 100 µM (inactive) each time. The GI50 in the assay with OVCAR-3, with PC-3, with RPMI-8226, in the assay on RXF 393, with SF-295 and in the assay with SNB-75 was > 100 µM (inactive) in each case. Also, the GI50 with UACC-257 and in the assay on UACC-62 was > 100 µM (inactive) in each case.
As to `COC(=O)Cc1ccc2c(c1)Sc1ccc(CC(=O)OC)cc1N2C`, the GI50 in the assay on A549 is 24 µM (inactive); in the assay on BT-549 it was 16.1 µM (inactive); in the assay with HCC 2998, 54 µM (inactive); in the assay on HL-60 it was 20.7 µM (inactive); in the assay with HOP-62, 27.4 µM (inactive); in the assay on HOP-92, 24.6 µM (inactive). Moreover, the GI50 in the assay with K562 was 6.75 µM (inactive); with KM12, 8.07 µM (inactive); in the assay on M14, 30.3 µM (inactive); in the assay on Malme-3M, 23.8 µM (inactive); in the assay on NCI-H226 it was 49.5 µM (inactive); in the assay on NCI-H522 it was 9.75 µM (inactive). The GI50 is 23.3 µM (inactive) in the assay with OVCAR-3; 25.8 µM (inactive) with PC-3; 39.1 µM (inactive) in the assay on RPMI-8226; 25.1 µM (inactive) in the assay on RXF 393; 22.8 µM (inactive) in the assay with SF-295; > 47.2 µM (inactive) in the assay on SNB-75. Further, the GI50 is 30.5 µM (inactive) in the assay with UACC-257 and 23.9 µM (inactive) with UACC-62.
On to `COc1cc(C2c3cc4c(cc3OC(NNc3ccccc3)C2C)OCO4)cc(OC)c1OC` (stereo not given), for which the GI50 with A549 is 1.6 µM (inactive); in the assay with BT-549 it was 1.01 µM (active); in the assay with HCC 2998, 0.953 µM (active); in the assay with HL-60 it was 1.58 µM (inactive); in the assay on HOP-62, 0.923 µM (active); with HOP-92 it was 6.43 µM (inactive). Besides, the GI50 in the assay with K562 is 0.437 µM (active); in the assay on KM12, 0.395 µM (active); with M14, 0.869 µM (active); with Malme-3M, 0.935 µM (active); in the assay with NCI-H226, 1.92 µM (inactive); in the assay on NCI-H522 it was 0.977 µM (active). For the same compound, the GI50 in the assay on OVCAR-3 is 0.993 µM (active); in the assay with PC-3 it was 0.778 µM (active); with RPMI-8226, 1.43 µM (inactive); in the assay on RXF 393 it was 1.54 µM (inactive); in the assay on SF-295 it was 0.361 µM (active); with SNB-75, 8.3 µM (inactive). Besides, the GI50 with UACC-257 was 2.07 µM (inactive); in the assay on UACC-62, 0.544 µM (active).
On to `CC(C(=O)O)/C(=C\c1ccc2c(c1)OCO2)C(=O)O` (stereo not given), for which the GI50 was > 100 µM (inactive) in the assay with A549; > 100 µM (inactive) in the assay with BT-549; > 100 µM (inactive) in the assay on HCC 2998; 0.0226 µM (active) in the assay on HL-60; > 100 µM (inactive) with HOP-62; > 100 µM (inactive) with HOP-92. Besides, the GI50 with K562 is > 92.5 µM (inactive); with KM12 it was > 100 µM (inactive); in the assay on M14 it was > 100 µM (inactive); in the assay with Malme-3M it was > 100 µM (inactive); in the assay on NCI-H226, > 77.6 µM (inactive); in the assay with NCI-H522, > 100 µM (inactive). Besides, the GI50 with OVCAR-3, with PC-3, in the assay with RPMI-8226, with RXF 393, with SF-295 and in the assay on SNB-75 was > 100 µM (inactive) in each case. In addition, the GI50 in the assay with UACC-257 and in the assay on UACC-62 was > 100 µM (inactive) throughout.
For the compound `COc1ccc(C2c3cc4c(cc3OC3(OC)COC(=O)C23)OCO4)c(OC)c1` (stereo not given), the GI50 in the assay with A549 was 10.1 µM (inactive); in the assay with BT-549, 6.56 µM (inactive); in the assay on HCC 2998, 30 µM (inactive); in the assay on HL-60, 2.32 µM (inactive); in the assay with HOP-62 it was 8.39 µM (inactive); in the assay with HOP-92, 26.5 µM (inactive). Besides, the GI50 in the assay with K562 was 5.08 µM (inactive); with KM12, 3.43 µM (inactive); in the assay on M14 it was 3.73 µM (inactive); in the assay on Malme-3M, 8.63 µM (inactive); with NCI-H226 it was 25.1 µM (inactive); in the assay with NCI-H522, 2.43 µM (inactive). The GI50 in the assay with OVCAR-3 was 4.72 µM (inactive); in the assay with PC-3 it was 17.7 µM (inactive); in the assay on RPMI-8226, 3.56 µM (inactive); in the assay on RXF 393, 6.59 µM (inactive); with SF-295, 12.8 µM (inactive); with SNB-75 it was 8.93 µM (inactive). The results for the GI50 in the assay on UACC-257 and in the assay with UACC-62 were 6.24 µM (inactive) and 5.73 µM (inactive), respectively.
Take `COc1ccc(C(C)NNC(=O)c2cc[n+]([BH2-]C#N)cc2)cc1F` (stereo not given): the GI50 in the assay with A549, in the assay with BT-549, in the assay on HCC 2998, in the assay on HL-60, with HOP-62 and in the assay with HOP-92 was > 100 µM (inactive) in each case. Also, the GI50 in the assay on K562, in the assay on KM12, with M14, in the assay on Malme-3M, with NCI-H226 and in the assay with NCI-H522 was > 100 µM (inactive) in each case. For the same compound, the GI50 in the assay on OVCAR-3, in the assay on PC-3, in the assay on RPMI-8226, with RXF 393, in the assay on SF-295 and in the assay on SNB-75 was > 100 µM (inactive) each time. Further, the GI50 in the assay on UACC-257 and in the assay with UACC-62 was > 100 µM (inactive) each time.
On to `COc1cc(C2c3cc4c(cc3[C@@H](Nc3ccc5c(c3)OCCO5)C3COC(=O)[C@H]23)OCO4)cc(OC)c1O` (stereo not given in full), for which the GI50 with A549 was 0.104 µM (active); with BT-549 it was 3.9 µM (inactive); in the assay with HCC 2998, 1.1 µM (active); with HL-60 it was 0.105 µM (active); in the assay with HOP-62, 0.22 µM (active); in the assay with HOP-92 it was 0.478 µM (active). Besides, the GI50 with K562 was 0.413 µM (active); with KM12, 1.85 µM (inactive); with M14, 0.327 µM (active); in the assay on Malme-3M it was 1.6 µM (inactive); with NCI-H226, 0.295 µM (active); in the assay on NCI-H522, 0.301 µM (active). Moreover, the GI50 in the assay with OVCAR-3 is 0.959 µM (active); in the assay with PC-3, 0.918 µM (active); with RPMI-8226, 0.532 µM (active); with RXF 393, 0.453 µM (active); with SF-295, 0.301 µM (active); with SNB-75 it was 0.581 µM (active). Besides, the GI50 was 2.57 µM (inactive) with UACC-257 and 0.257 µM (active) with UACC-62.
